PubChem BioAssay (NCI)
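Protocol summary: plate cells (96-well), add compound at 5 concentrations, incubate 48 h, interpolate endpoints linearly. Abbreviation: GI50, concentration required for 50% inhibition of growth. TGI denotes the concentration required for complete inhibition of growth.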

Columns and labels:
Test in all cases: NCI anticancer screen, dose series, 48 h
[1] = test system: UO-31 renal
[2] = test system: SK-MEL-5 melanoma
[3] = test system: KM12 colon
[4] = test system: SK-MEL-28 melanoma
[5] = test system: CAKI-1 renal
[6] = test system: SNB-75 CNS
[7] = test system: M14 melanoma
[8] = test system: MALME-3M melanoma
[9] = test system: RXF 393 renal
[10] = test system: SR leukemia

| Structure (SMILES) | TGI [1] [µM] | TGI [2] [µM] | TGI [3] [µM] | TGI [4] [µM] | TGI [5] [µM] | TGI [6] [µM] | TGI [7] [µM] | TGI [8] [µM] | TGI [9] [µM] | TGI [10] [µM] | GI50 [1] [µM] | GI50 [2] [µM] | GI50 [3] [µM] | GI50 [4] [µM] | GI50 [5] [µM] | GI50 [6] [µM] | GI50 [7] [µM] | GI50 [8] [µM] | GI50 [9] [µM] | GI50 [10] [µM] |
| --- | --- | --- | --- | --- | --- | --- | --- | --- | --- | --- | --- | --- | --- | --- | --- | --- | --- | --- | --- | --- |
| C#CC[N+](C)(CC#C)CC#C | > 100 | > 100 | > 100 | > 100 | > 100 | > 100 | > 100 | > 100 | > 100 |  |  |  |  |  |  |  |  |  |  |  |
| Cc1c(CCO)c(=O)n2c([nH]c3ccccc32)c1C#N | > 100 | > 100 | > 100 | > 100 | > 100 | > 100 | > 100 | > 100 | > 100 |  |  |  |  |  |  |  |  |  |  |  |
| COc1cc(OC)c2nccc(NCCCN(C)C)c2c1[N+](=O)[O-] | > 100 | > 100 | > 100 | > 100 | > 100 | > 100 | > 100 | > 100 |  | > 100 |  |  |  |  |  |  |  |  |  |  |
| Cc1ccc(C(=O)N(Cc2ccccc2)Cc2ccccc2)cc1N=NN(C)C | > 71 | 27.3 | > 86.5 | > 69.7 | > 100 |  | > 81.2 | 40.6 |  | > 100 |  |  |  |  |  |  |  |  |  |  |
| O=C(CCC(=O)Nc1ccc(Cl)c(Cl)c1)CC(=O)c1ccc(F)cc1 | > 100 | > 100 | > 100 | > 100 | > 100 |  | > 100 | > 100 | > 100 | > 100 |  |  |  |  |  |  |  |  |  |  |
| CN(C)c1nnnn1-c1c(N)n(C)c(=O)n(C)c1=O | > 100 | > 100 | > 100 | > 100 | > 100 | > 100 |  | > 100 |  |  |  |  |  |  |  |  |  |  |  |  |
| Cc1ccc(NC(=O)C2C(=O)N(c3ccc(C)c(C)c3)C(=O)/C2=N\NC(N)=O)cc1C (stereo unspecified) | > 100 | > 100 | > 100 | > 100 | > 100 | > 100 | > 100 | > 100 | > 100 |  |  |  |  |  |  |  |  |  |  |  |
| COc1ccc(C(c2ccc(OCCN(C)C)cc2)c2cc3ccccc3c3ccccc23)cc1 (stereo unspecified) | 2.9 | 3.11 | 3.39 | 3.11 | 3.01 | 2.74 | 3.25 | 3.12 | 2.82 |  | 1.49 | 1.69 | 1.8 | 1.63 | 1.6 | 1.36 | 1.73 | 1.55 | 1.44 |  |
| Cn1c(=O)c(NC(=O)C(Cl)(Cl)Cl)nc2ccccc21 | > 100 | > 100 | > 100 | > 100 | > 100 | > 100 | > 100 | > 100 | > 100 |  |  |  |  |  |  |  |  |  |  |  |
| CCCCCCCCCCCCCCCCNCCCN(C)CCCN | 31.6 | 31.4 | 33 | 26.6 | 35.8 | 34.2 | 30.8 |  |  | 42.2 |  |  |  |  |  |  |  |  |  |  |
| Cn1nc(-c2ccc(Cl)cc2)nc2c(=O)n(C)c(=O)nc1-2 | 6.56 | 0.878 | 5.5 | 3.13 | 6.61 | 4.68 | 1.41 | 1.14 | 1.57 |  | 1.53 | 0.321 | 1.35 | 1.24 | 1.87 | 2.38 | 0.75 | 0.382 | 0.781 |  |
| CCn1c(SC(C)C(=O)c2c(C)n(C)n(-c3ccccc3)c2=O)nc2ccccc2c1=O (stereo unspecified) | > 100 | > 100 | > 100 | > 100 |  | > 100 | > 100 | > 100 |  | > 100 |  |  |  |  |  |  |  |  |  |  |
| CS(=O)(=O)NNS(=O)(=O)c1ccccc1 | > 100 | > 100 | > 100 |  | > 100 | > 100 | > 100 | > 100 | > 100 | > 100 |  |  |  |  |  |  |  |  |  |  |
| O=C(NCCO)c1ccc([N+](=O)[O-])cc1 | > 100 | > 100 | > 100 | > 100 | > 100 | > 100 | > 100 | > 100 | > 100 |  |  |  |  |  |  |  |  |  |  |  |
| Cc1cc(S(=O)(=O)/N=C/N(C)C)c(SC(=O)c2ccc(Cl)cc2)cc1Cl | > 100 | 36.5 | > 100 | > 100 | 92.3 |  | > 100 |  | 35.7 | > 100 | > 100 | 10.8 | 39.1 | 48.9 | 36.6 |  | 89.8 |  | 11.5 | 44.6 |
| Cc1nc2c(o1)C(=Nc1ccccc1)c1ccccc1C2=O | 20.6 | 5.78 | 30.9 |  | 36.7 | 23.6 | 21.4 | 12.3 | 44 |  |  |  |  |  |  |  |  |  |  |  |
| Cc1noc2c1C(=O)CCC2 | > 100 |  |  | > 100 | > 100 | > 100 | > 100 | > 100 | > 100 | > 100 |  |  |  |  |  |  |  |  |  |  |
| CC(=O)N1N=C(c2ccc(Nc3ccnc4cc(Cl)ccc34)cc2)CC1c1ccc(Cl)cc1 (stereo unspecified) | > 100 | 16 | > 100 | > 100 | > 100 |  | > 100 |  | > 100 | > 100 | 3.87 | 2.2 | 6.59 | 4.88 | > 100 |  | 5.24 |  | 5.07 | 0.612 |
| COc1cccc(CSCC(=O)O)c1 | > 100 | > 100 | > 100 | > 100 | > 100 | > 100 | > 100 | > 100 | > 100 |  |  |  |  |  |  |  |  |  |  |  |
| NC(=O)c1ccccc1NC(=O)C(=O)Cc1nc2ccccc2[nH]c1=O | > 100 | > 100 | > 100 | > 100 | > 100 | > 100 | > 100 | > 100 | > 100 |  |  |  |  |  |  |  |  |  |  |  |
| Clc1ccc(-c2csc(Nc3cccc(-c4csc(-c5ccccc5)n4)c3)n2)cc1 | 27.4 | 18.9 | > 50 | 15.6 | 25.6 |  | 24.1 |  | 21.9 | 28.7 | 12.4 | 8.95 | 15.7 | 5.93 | 9.77 |  | 11.6 |  | 9.89 | 6.8 |
